Values after ≈ are worked out from the molar mass of the structure shown. Where two headings read alike, the source gives them in different places.
What was measured:
[1] = test system: H. pylori bacterium (DSM 4867); experiment: Anti-H. pylori activity, well diffusion technique; assay type: cell-based, Helicobacter pylori; settings: H. pylori DSM 4867, 2500 µg per well, 24–48 h
Method: (§1) Derivatives C4a, C4b and C4d which were found best in urease inhibition and antioxidant activity as well as in terms of docking score were tested further against antibacterial efficiency against Helicobacter pylori DSM 4867 using AHA as a standard and DMSO as control. […] In-vitro results concluded that compound C4a bearing nitro and chloro group at 2nd and 4th position indicated excellent antibacterial action against H. Pylori probably by interacting with the target protein efficiently and inhibited the growth of pathogenic bacteria.
(§2) Since H. Pylori is not acidophilic in nature therefore it requires urease, which produced ammonia by hydrolyzing urea present in stomach, for its survival in acidic gastric medium. Because of virulence nature of urease researchers decided to target its inhibition for anti-H. Pylori drugs. Novel synthesized derivatives were investigated against H. pylori bacterium (DSM 4867, AHA as standard) for their antibacterial activity by using Well diffusion technique. The stock solution of compounds in DMSO (1000 μg/mL) were prepared. Cell suspension was prepared from culture grown on BHI broth. The cell suspensions of all the cultures were adjusted to 1–2 × 10^5 cells/mL. Helicobacter pylori (100 µL) was inoculated by spread plate technique on agar plates (90 mm). […] MIC was determined against Helicobacter pylori by micro broth dilution technique as per NCCLS method.

[2] = test system: Helicobacter pylori DSM 4867; experiment: MIC against Helicobacter pylori by micro broth dilution technique; assay type: cell-based; settings: H. pylori DSM 4867, micro broth dilution
Method: as §1, §2

[3] = DPPH assay for antioxidant activity; settings: DPPH free radical scavenging, mean SEM
Method: (§3) As structure of urease from different sources has common structural features therefore urease inhibition studies were carried out on jack bean urease. Inhibition studies were carried out by indophenol technique described by Weatherburn in which measurement of concentration of ammonia released during the reaction between reagents and compounds were done.
Antioxidant nature of the synthesized derivatives was measured by the help of DPPH method. According to this method synthesized compounds were allowed to react for 0.5 h at 37 °C with stable free radical, 1, 1-diphenyl-2-picrylhydrazyl radical (DPPH). The DPPH was taken in a concentration of 300 µM. Decrease in value of absorption at 515 nm was measured after the period of incubation using a microplate reader using ascorbic acid as a standard. Molecule capable of donating proton to DPPH and cause its reduction acts as an antioxidant. Following reduction deep violet coloured DPPH solution changes to yellow depending upon the nature of antioxidant compound, which brings a measurable decrease in value of absorption at 517 nm. The proton or electron donating capacity of the derivative was estimated from the fading of deep purple colored methanolic solution of 1, 1-diphenylpicrylhydrazyl (DPPH). Incubation of mixture was done at room temperature for 30 min and measurements were done at 517 nm against blank. Calculation of percentage inhibition was done by following formula: I\%=AControl-ASample/AControl×100 where, Acontrol is control absorbance; Asample is test absorbance.

Jack Bean Urease [4] = molecular target: T1, Jack Bean Urease (Canavalia ensiformis, UniProt P07374); experiment: biochemical
T1 construct: purchased Sigma Aldrich
Method: as §3
Urease enzyme inhibition investigation studies for all synthesized compounds were done by the method developed by Weatherburn (1967) named Indophenol against Jack Bean Urease. Briefly, incubation of solution of Jack bean protein 25 μL was done at temperature of 30 °C for a period of 15 min with 55 μL of buffers solution having 100 mM urea and 5 μL of test solution in 96-well plates. 45 μL phenol solution composing phenol 1% w/v and solution of sodium nitroprusside 0.005% w/v and alkali reagent 70 μL composed of sodium hydroxide 0.5% w/v and active sodium hypochloride solution 0.1% were mixed to every well. The measurement of increase in absorption at 625 nm was done after 50 min by help of a microplate reader (Molecular Device, USA). Readings were recorded in triplicate set in a final volume of 200 μL using thiourea as standard. Each assay was performed at pH 8.2 (0.01 M K2HPO4.3H2O, 0.01 M […] and 1 mM EDTA). Calculation of Inhibition in percentage of synthesized derivatives was done by the formula given as: I\%=AControl-ASample/AControl×100 where, Acontrol is control absorbance; Asample is test absorbance.

Jack Bean Urease [5] = molecular target: T1, Jack Bean Urease; experiment: Enzyme kinetics, Lineweaver-Burk plot; assay type: biochemical; settings: varying urea, phosphate buffer, 1 mM EDTA, pH 8.2
Method: Study of inhibitory effect of chlorogenic derivatives on jack bean urease was performed to check the inhibitory potential, kinetics studies and mechanism of inhibition in phosphate buffer and 1 mM EDTA at pH 8.2. […] Competitive inhibition infers that compound C4a will probably compete for binding at the site of substrate in enzyme active site pocket.
(substrate concentration) against 1/[V] velocity. To examine the mode of inhibition compound C4a was solubilized in DMSO and further dilutions were prepared accordingly. Plot was prepared by using varying concentration of substrate (urea) in with varying concentration of inhibitor C4a. Inhibitory constant values (Ki) were determined as the interaction on the X-axis of the plots of the slope against different concentration of derivatives C4a. […] All experiments were performed in triplicate and kinetic study for interaction of enzyme with inhibitor was computed with Graphpad prism 7.0 software.

T1 sequence (P07374 whole entry, looked up): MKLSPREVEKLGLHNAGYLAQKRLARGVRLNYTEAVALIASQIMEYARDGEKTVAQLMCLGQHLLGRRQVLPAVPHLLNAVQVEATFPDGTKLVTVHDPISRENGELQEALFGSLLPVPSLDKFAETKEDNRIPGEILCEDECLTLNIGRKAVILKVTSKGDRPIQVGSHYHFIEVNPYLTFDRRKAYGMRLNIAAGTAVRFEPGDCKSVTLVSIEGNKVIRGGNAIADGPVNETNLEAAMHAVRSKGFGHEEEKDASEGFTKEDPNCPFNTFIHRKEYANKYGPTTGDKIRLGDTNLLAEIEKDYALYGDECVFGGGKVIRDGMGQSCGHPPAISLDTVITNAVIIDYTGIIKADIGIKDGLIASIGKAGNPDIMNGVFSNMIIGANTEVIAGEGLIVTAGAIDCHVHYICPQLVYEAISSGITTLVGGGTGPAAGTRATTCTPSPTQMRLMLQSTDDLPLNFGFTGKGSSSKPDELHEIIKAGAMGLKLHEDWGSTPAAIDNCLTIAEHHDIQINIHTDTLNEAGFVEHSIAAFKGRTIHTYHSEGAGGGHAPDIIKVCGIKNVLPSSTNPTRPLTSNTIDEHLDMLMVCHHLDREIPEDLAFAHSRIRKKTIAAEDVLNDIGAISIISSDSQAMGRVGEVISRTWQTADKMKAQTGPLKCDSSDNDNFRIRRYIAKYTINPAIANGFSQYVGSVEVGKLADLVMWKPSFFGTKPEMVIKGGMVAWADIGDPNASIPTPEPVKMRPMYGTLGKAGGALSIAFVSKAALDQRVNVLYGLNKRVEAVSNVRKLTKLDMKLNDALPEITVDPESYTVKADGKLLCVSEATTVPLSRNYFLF

| Structure (SMILES) | IC50 [3] [µM] | IC50 (Jack Bean Urease [4]) [µM] | also measured |
| --- | --- | --- | --- |
| CC(=O)NO [AHA, acetohydroxamic acid, reference compound] |  |  | zone of inhibition [1]: 9.00 ± 0.50 mm; MIC [2]: 1000 µg/mL (≈ 13300 µM) |
| O=C1O[C@H]([C@@H](O)CO)C(O)=C1O [Ascorbic acid, ascorbic acid, reference compound] | 8.59 ± 0.004 |  |  |
| O=C(/C=C/c1ccc(O)c(O)c1)O[C@@H]1C[C@](O)(C(=O)Nc2ccc([N+](=O)[O-])cc2Cl)CC(O)C1O (stereo partly drawn) [C4a, (1R, 5S)-5-((2-chloro-4-nitrophenyl)carbamoyl)-2,3,5-trihydroxycyclohexyl (2E)-3-(3,4-dihydroxyphenyl)prop-2-enoate] | 5.1 ± 0.018 | 11.01 ± 0.013 | zone of inhibition [1]: 10.00 ± 0.00 mm; MIC ([2]; Helicobacter pylori, DSM4867, read-out: MIC): 500 µg/mL (≈ 983 µM); mode of inhibition (Jack Bean Urease [5]): competitive type of Inhibition |
| O=C(/C=C/c1ccc(O)c(O)c1)O[C@@H]1C[C@](O)(C(=O)Nc2ccc(Cl)cc2[N+](=O)[O-])CC(O)C1O (stereo partly drawn) [C4b, (1R, 5S)-5-((4-chloro-2-nitrophenyl)carbamoyl)-2,3,5-trihydroxycyclohexyl (2E)-3-(3,4-dihydroxyphenyl)prop-2-enoate] | 6.01 ± 0.005 | 15.86 ± 0.004 |  |
| O=C(/C=C/c1ccc(O)c(O)c1)O[C@@H]1C[C@](O)(C(=O)Nc2ccc(Br)cc2)CC(O)C1O (stereo partly drawn) [C4c, (1R, 5S)-5-((4-bromophenyl)carbamoyl)-2,3,5-trihydroxycyclohexyl (2E)-3-(3,4-dihydroxyphenyl)prop-2-enoate] | 8.48 ± 0.026 | 22.02 ± 0.027 |  |
| O=C(/C=C/c1ccc(O)c(O)c1)O[C@@H]1C[C@](O)(C(=O)Nc2cccc([N+](=O)[O-])c2)CC(O)C1O (stereo partly drawn) [C4d, (1R, 5S)-2,3,5-trihydroxy-5-((3-nitrophenyl)carbamoyl)cyclohexyl (2E)-3-(3,4-dihydroxyphenyl)prop-2-enoate] | 5.34 ± 0.007 | 13.8 ± 0.041 |  |
| COc1cccc(NC(=O)[C@]2(O)CC(O)C(O)[C@H](OC(=O)/C=C/c3ccc(O)c(O)c3)C2)c1 (stereo partly drawn) [C4e, (1R, 5S)-2,3,5-trihydroxy-5-((3-methoxyphenyl)carbamoyl) cyclohexyl (2E)-3-(3,4-dihydroxyphenyl)prop-2-enoate] | 6.85 ± 0.02 | 20.6 ± 0.001 |  |
| COc1ccc(NC(=O)[C@]2(O)CC(O)C(O)[C@H](OC(=O)/C=C/c3ccc(O)c(O)c3)C2)cc1 (stereo partly drawn) [C4f, (1R, 5S)-2,3,5-trihydroxy-5-((4-methoxyphenyl)carbamoyl)cyclohexyl (2E)-3-(3,4-dihydroxyphenyl)prop-2-enoate] | 7.89 ± 0.006 | 21.83 ± 0.009 |  |
| Cc1ccccc1NC(=O)[C@]1(O)CC(O)C(O)[C@H](OC(=O)/C=C/c2ccc(O)c(O)c2)C1 (stereo partly drawn) [C4g, (1R, 5S)-2,3,5-trihydroxy-5-((2-methylphenyl)carbamoyl)cyclohexyl (2E)-3-(3,4-dihydroxyphenyl)prop-2-enoate] | 7.75 ± 0.011 | 21.5 ± 0.032 |  |
| O=C(/C=C/c1ccc(O)c(O)c1)O[C@@H]1C[C@](O)(C(=O)Nc2ccccc2F)CC(O)C1O (stereo partly drawn) [C4h, (1R, 5S)-5-((2-fluorophenyl)carbamoyl)-2,3,5-trihydroxycyclohexyl (2E)-3-(3,4-dihydroxyphenyl)prop-2-enoate] | 7.23 ± 0.008 | 21.24 ± 0.016 |  |
| O=C(/C=C/c1ccc(O)c(O)c1)O[C@@H]1C[C@](O)(C(=O)O)C[C@@H](O)[C@H]1O [CHLG, chlorogenic acid, reference compound] |  | 22.68 ± 0.006 |  |
| NC(N)=S [Thiourea, thiourea, reference compound] |  |  | IC50 (Jack Bean Urease [4]; jack bean urease, indophenol method, pH 8.2, mean SEM, read-out: IC50 (µM) urease inhibition): 22.8 ± 0.011 µM |

From paper PMC6661759 (BMC Chemistry, 2019)
